PubChem BioAssay AID1996
Converted amounts (≈) assume the structure as drawn.

Conditions: buffer; pH 7.4; 200.0 µM

Structure (SMILES)	solubility kinetic
O=C(CCN1C(=O)C2C3CCC(C3)C2C1=O)OCC(=O)c1ccc(Cl)cc1 (stereo unspecified)	> 58.5 µg/mL
Cc1ccc2nc(C3CCCCC3)[nH]c2c1	> 32.1 µg/mL
CCN(CC)C(=O)c1ccc(NC(=O)COc2ccccc2F)cc1	> 51.7 µg/mL
Cc1nn(C)c(C)c1NC(=O)c1ccc(Br)o1	> 44.7 µg/mL
CC(NC(=O)C12CC3CC(CC(O)(C3)C1)C2)c1ccccc1 (stereo unspecified)	> 44.9 µg/mL
COCC(C)Nc1ccc(S(=O)(=O)N2CCCC2)cc1[N+](=O)[O-] (stereo unspecified)	44.2 µg/mL (≈ 129 µM)
COc1ccc(S(=O)(=O)N2CCCCCC2)cc1C(=O)OCC(=O)NC1CCS(=O)(=O)C1 (stereo unspecified)	> 73.3 µg/mL
CN(C)CCNC(=O)Nc1ccc(F)cc1F	> 36.5 µg/mL
CCNC(=O)Nc1ccc(S(=O)(=O)Nc2cnc(C)nc2C)cc1	> 52.4 µg/mL
CCn1ccnc1CN(C)Cc1nc(CCC(C)C)no1	38.4 µg/mL (≈ 132 µM)
CCCCn1c(N)c(N(C)C(=O)C2CCCC2)c(=O)[nH]c1=O	> 46.3 µg/mL
Cc1ccc(C)c(SCC(=O)NC2CCS(=O)(=O)C2)c1 (stereo unspecified)	> 47 µg/mL
Nc1nc(Nc2ccccc2)nc(C(F)(F)F)n1	> 38.3 µg/mL
Cc1cc(NC(=O)c2cc([N+](=O)[O-])ccc2Cl)no1	> 42.2 µg/mL
CCOC(=O)C1(Cc2cccc(F)c2)CCN(CC(O)CO)CC1 (stereo unspecified)	43.3 µg/mL (≈ 128 µM)
O=C(O)C1CCCCN1C(=O)c1cc2c(s1)CCCCC2 (stereo unspecified)	> 46.1 µg/mL
Cc1nc(C)c(-c2csc(Nc3ccc(F)cc3)n2)s1	1.8 µg/mL (≈ 5.89 µM)
COCCCN1C(=O)CC(C(=O)OC)=C1C	> 34.1 µg/mL
CC(=O)N1CCN(C(=O)c2ccc(C)c(S(=O)(=O)N3CCCCC3)c2)CC1	> 59 µg/mL
O=C(Cc1cccs1)Nc1ccc(F)c(F)c1	20.9 µg/mL (≈ 82.5 µM)
CCOC(=O)C1CCN(C(=O)CCC2CCCC2)CC1	37.6 µg/mL (≈ 134 µM)
CCN1CCN(c2ncnc3scc(-c4ccc(C)cc4)c23)CC1	> 50.8 µg/mL
CCOC(=O)c1cc2c(cn1)[nH]c1ccccc12	7.5 µg/mL (≈ 31.2 µM)
CC1CCCCC1NC(=O)COc1ncnc2sccc12 (stereo unspecified)	> 45.8 µg/mL
CCOc1ccccc1Nc1nnc(SCC(=O)NC2CCS(=O)(=O)C2)s1 (stereo unspecified)	> 64.3 µg/mL

Structure (SMILES)	solubility kinetic
Cc1nc2ccsc2c(=O)n1-c1ccccc1Cl	> 41.5 µg/mL
COc1cc(C(=O)NNC(=O)C2CCCC2)cc(OC)c1OC	> 48.4 µg/mL
CCOc1ccc2nc(Cl)sc2c1	< 0.5 µg/mL
CC(=O)Nc1ccc(/C=C(\C#N)C(N)=O)cc1	16.8 µg/mL (≈ 73.3 µM)
CC(=O)Nc1ccc(NC(=O)CC23CC4CC(CC(C4)C2)C3)cc1	21.3 µg/mL (≈ 65.2 µM)
Cc1cc(Nc2ccc(C)c(Cl)c2)nc(N2CCOCC2)n1	7.6 µg/mL (≈ 23.8 µM)
CN1CCCN(C(=O)c2ccccc2Cl)CC1	> 37.9 µg/mL
COc1ccc(-n2c(-c3ccccc3)nc3ccccc3c2=O)cc1	3.3 µg/mL (≈ 10 µM)
CN1CCCC(OC(=O)c2ccc(C(C)(C)C)cc2)C1.Cl (stereo unspecified)	> 46.8 µg/mL
Nc1ccc(S(=O)(=O)C(F)(F)F)cc1N	> 36 µg/mL
COc1cc(SC)ccc1C(=O)OCC(=O)N1CCCC1	> 46.4 µg/mL
O=C(COC(=O)c1ccc(Cl)nc1)Nc1ccc2c(c1)CCC2	5.3 µg/mL (≈ 16 µM)
COCCCC/C(=N\OCCN)c1ccc(C(F)(F)F)cc1.O=C(O)/C=C\C(=O)O	> 65.2 µg/mL
CC(C)(C)OC(=O)N1CCC(CNC(=O)c2cccs2)CC1	42.4 µg/mL (≈ 131 µM)
O=C1CCCN1CC(O)CS(=O)(=O)Cc1ccccc1Cl (stereo unspecified)	> 49.8 µg/mL
CCCOc1ccc(CCCN=C(N)N)cc1Cl.O=S(=O)(O)O	42.2 µg/mL
CCC(C)Nc1nc(N)c([N+](=O)[O-])c(N2CCCCCC2)n1 (stereo unspecified)	29.1 µg/mL (≈ 94.4 µM)
CCn1c(SCC(=O)NC2CC2)nnc1-c1csc(C)c1	> 48.4 µg/mL
Cc1cccc(C(=O)NCC(=O)NC2CCC(C)CC2)c1 (stereo unspecified)	10.5 µg/mL (≈ 36.4 µM)
Oc1cccc(Nc2nc(N3CCOCC3)nc(N3CCOCC3)n2)c1	46.1 µg/mL (≈ 129 µM)
CCS(=O)(=O)N1CCC(C(=O)Oc2ccccc2Cl)CC1	46 µg/mL (≈ 139 µM)
CC(C)c1cccc(OCCN2CCCC2)c1	22.9 µg/mL (≈ 98.1 µM)
CCCCC#Cc1cncc(C(=O)NN)c1	> 32.6 µg/mL
O=C(NC1CCCCCC1)C1CC(=O)N(c2ccc(Cl)cc2)C1 (stereo unspecified)	6.3 µg/mL (≈ 18.8 µM)
CC12CCC(C(=O)O)(c3nc4cc([N+](=O)[O-])ccc4nc31)C2(C)C (stereo unspecified)	> 49.1 µg/mL

The remaining lines, values ahead:

solubility kinetic	Structure (SMILES)
> 42.8 µg/mL	Cn1cccc1/C=N\NC(=O)C1COc2ccccc2O1 (stereo unspecified)
9.2 µg/mL (≈ 27.9 µM)	O=C(Cn1cnc2ccccc2c1=O)c1ccc(OC(F)F)cc1
0.9 µg/mL (≈ 3.08 µM)	O=C(Nc1ccc2c(c1)OCO2)Nc1ccc(F)cc1F
10.4 µg/mL (≈ 39.8 µM)	Nc1ccc(Oc2ccccc2-c2ccccc2)cc1
47.3 µg/mL (≈ 149 µM)	COc1ccc(NC(=O)CCNC(=O)c2ccco2)cc1OC
41.2 µg/mL (≈ 125 µM)	CC(=O)c1ccc(C(=O)N2CCCC(Nc3ccccc3)C2)s1 (stereo unspecified)
0.9 µg/mL (≈ 2.65 µM)	CCOc1ccccc1NC(=O)COc1ccc2ccc(=O)oc2c1
> 44.3 µg/mL	Cc1ccc(C(=O)N2CCN(c3ccccn3)CC2)cc1C
> 49.7 µg/mL	COc1cc(C(=O)NCCOc2ccccc2)cc(OC)c1OC
1.4 µg/mL (≈ 5.2 µM)	COc1ccc(-c2cc(C(F)(F)F)nc(N)n2)cc1
> 34.7 µg/mL	CCCC(=O)Nc1ccc2oc(=O)ccc2c1
> 50.8 µg/mL	COCCCNC(=O)c1ccc(CN2CCc3ccccc3C2)cc1
42.7 µg/mL (≈ 143 µM)	O=C(NCc1cccnc1)C(=O)Nc1ccc2c(c1)OCO2
6.2 µg/mL (≈ 18.5 µM)	Cn1c(=O)c2c(nc(SCc3ccccc3F)n2C)n(C)c1=O
> 56 µg/mL	O=C(COc1ccccc1N1C(=O)C2C3C=CC(C3)C2C1=O)c1ccccc1 (stereo unspecified)
2.7 µg/mL (≈ 9.36 µM)	O=C(CCc1ccccc1)NC(=S)NCc1ccco1
1.4 µg/mL (≈ 4.92 µM)	CCOc1nc(-c2ccccc2Cl)nc2ccccc12
0.8 µg/mL (≈ 2.85 µM)	CCc1ccc2oc(-c3ccc(NC(C)=O)cc3)nc2c1
39.9 µg/mL (≈ 143 µM)	O=C(CSc1cccc[n+]1[O-])c1ccc(Cl)cc1
6.7 µg/mL (≈ 21.7 µM)	COc1cccc(/C=C/C(=O)Nc2ccc3[nH]c(=O)[nH]c3c2)c1
40.1 µg/mL (≈ 129 µM)	COc1cc(C)c(COc2ncnc3ccccc23)cc1OC
11.2 µg/mL (≈ 61.8 µM)	C(=C\c1ccncc1)/c1ccccc1
6.9 µg/mL (≈ 20.9 µM)	O=C(CCNC(=O)c1ccccc1)NCCc1ccc(Cl)cc1
1 µg/mL (≈ 3.18 µM)	CCn1c(=O)c2cc(C(=O)NC(C)C)sc2c2ccccc21

solubility kinetic	Structure (SMILES)
30.4 µg/mL	CCOC(=O)c1c(CCl)nc2ccccc2c1C.Cl
0.5 µg/mL (≈ 1.5 µM)	CC1=C(C(=O)OC2CCCCC2)C(c2ccccc2F)NC(=O)N1 (stereo unspecified)
5.1 µg/mL (≈ 14.6 µM)	CC(=O)N(CCc1cccc(C)c1)Cc1cc2ccc(C)cc2[nH]c1=O
13.5 µg/mL (≈ 43.2 µM)	CCc1ccc(NC(=S)Nc2ccc3[nH]c(=O)[nH]c3c2)cc1
< 0.1 µg/mL	N#Cc1sc2nccc(Nc3ccccc3)c2c1N
45.3 µg/mL (≈ 140 µM)	COc1cccc(-n2c(=S)[nH]c3c(oc4ccccc43)c2=O)c1
6.6 µg/mL (≈ 19.6 µM)	O=C(CCSc1ccccc1)Nc1ccccc1Br
26.8 µg/mL (≈ 125 µM)	COc1ccc(NCc2cccnc2)cc1
9.1 µg/mL (≈ 27.3 µM)	CCOC(=O)NC(=O)c1cn(-c2ccc(OC)cc2)c(=O)[nH]c1=O
19 µg/mL (≈ 71.1 µM)	N#C/C(=C\c1ccc(F)cc1)C(=O)Nc1ccccn1
26.1 µg/mL (≈ 66.2 µM)	CN(Cc1ccccc1)C(=O)c1ccc(S(=O)(=O)N(C)c2ccccc2)cc1
> 50.9 µg/mL	COc1ccccc1C1C(C(C)=O)=C(O)C(=O)N1c1ccc(O)cc1 (stereo unspecified)
20.6 µg/mL (≈ 72.7 µM)	O=[N+]([O-])c1sccc1CS(=O)(=O)c1ccccc1
> 40 µg/mL	Cc1ccccc1NC(=O)N1CCc2ccccc2C1
12.7 µg/mL (≈ 48.3 µM)	O=C(COc1ccccc1)Nc1ccc(Cl)cn1
17 µg/mL (≈ 56.8 µM)	O=C(COC(=O)c1cc2ccccc2o1)NCc1ccco1
3.4 µg/mL (≈ 9.02 µM)	O=C(OCc1ccccc1Cl)c1cc([N+](=O)[O-])ccc1N1CCOCC1
26.9 µg/mL (≈ 89.6 µM)	Cc1cc(SCc2cccc(C(F)(F)F)c2)nc(=O)[nH]1
27.8 µg/mL (≈ 98.5 µM)	CN(C)CCCN1C(=O)c2cc3ccccc3cc2C1=O
2.7 µg/mL	COc1ccc2[nH]c(C(=O)NCc3ccccc3)c(C)c2c1.Cl
> 42.6 µg/mL	O=S(=O)(Nc1ccc2ccccc2n1)c1ccccc1
2.9 µg/mL (≈ 8.16 µM)	CCC(C)C(=O)Nc1ccccc1N1CCN(c2ccc(F)cc2)CC1 (stereo unspecified)
5.9 µg/mL (≈ 16.4 µM)	Cc1ccc(Cl)c(OCC(=O)Nc2ccccc2C(=O)NC2CC2)c1
> 36.2 µg/mL	NC(=S)NNC(=O)COc1ccccc1O

solubility kinetic	Structure (SMILES)
> 38.6 µg/mL	COc1cccc(NC(=O)COc2ccccc2)c1
> 40.7 µg/mL	O=C(Nc1ccccc1C(F)(F)F)c1ccsc1
42.1 µg/mL (≈ 135 µM)	Cc1ccccc1-c1noc(CCC(=O)NCc2ccco2)n1
> 54.4 µg/mL	CCOc1ccccc1N1CCN(Cc2cnc(-c3ccccc3)[nH]2)CC1
> 34.4 µg/mL	O=C(Cc1ccccc1)NCCc1cnc[nH]1
> 36.3 µg/mL	COc1ccc(CC(=O)Nc2cccnc2)cc1
5.9 µg/mL (≈ 19.3 µM)	CC(=O)c1c(C)[nH]c(C(=O)Nc2cccc3ccccc23)c1C
30.5 µg/mL (≈ 98.6 µM)	OCc1ccc(OCCCOc2cccc3cccnc23)cc1
> 41.2 µg/mL	Nc1ccc(S(=O)(=O)N2CCc3ccccc32)cc1
14.8 µg/mL (≈ 45.1 µM)	COc1ccc(CNC(=S)NC(C)CCc2ccccc2)cc1 (stereo unspecified)
9.8 µg/mL (≈ 18.8 µM)	CCCc1cc(=O)[nH]c(SCC(=O)Nc2cc(S(=O)(=O)N(CC)c3ccccc3)ccc2Cl)n1
30.3 µg/mL (≈ 93.6 µM)	Cc1c(Cl)cccc1NC(=O)CS(=O)(=O)c1ccccc1
< 0.2 µg/mL	Cc1cc(C)nc(NC(=S)Nc2cccc(F)c2)c1
40.4 µg/mL (≈ 140 µM)	Cc1[nH]c2ccccc2c1SCC(=O)N1CCCCC1
30 µg/mL (≈ 126 µM)	N#Cc1ccc(COC(=O)c2ccccn2)cc1
> 54.1 µg/mL	O=C(O)c1cccc(S(=O)(=O)Nc2ccc(N3CCCCC3)cc2)c1
> 55.7 µg/mL	COc1cccc(CNC(=O)CCCC(=O)Nc2cccc([N+](=O)[O-])c2)c1
> 47 µg/mL	CC(=O)Oc1ccc(NC(=O)Cc2ccccc2)c(C(=O)O)c1
45.4 µg/mL (≈ 149 µM)	O=C(CSc1ccccc1F)Nc1ccc2c(c1)OCO2
1.3 µg/mL (≈ 3.28 µM)	O=C(Nc1cccc(NC(=O)c2ccccc2[N+](=O)[O-])c1)c1ccccc1Cl
10.3 µg/mL (≈ 33.2 µM)	Cc1cc(C(=O)NC2CCCc3ccccc32)ccc1[N+](=O)[O-] (stereo unspecified)
> 45.8 µg/mL	COCCNC(=O)Cn1nc(-c2ccccc2F)ccc1=O
> 53.8 µg/mL	CCc1cc(=O)oc2cc(OCC(=O)N3CCC(C(N)=O)CC3)ccc12
